# According to publication PMC10656490, “Sequence-based prediction of the intrinsic solubility of peptides containing non-natural amino acids” (Nature Communications, 2023):
# Read-outs that look alike come from different tables or passages of the source. Where a SMILES comes first, the peptide text is derived from it. [ ]: non-standard residue; d: D form. Cha = N[C@@H](CC1CCCCC1)C(=O)O; Cit = NC(=O)NCCC[C@H](N)C(=O)O; Nle = CCCC[C@H](N)C(=O)O; Aib = CC(C)(N)C(=O)O
# Assay: Solubility by ultracentrifugation (GLP-1 variants)
# Format: physicochemical
# Details: for Ultracentrifugation: GLP1 variants, Figure 3c; for Ultracentrifugation / First Run / Second Run: in mg/mL; for First Run / Second Run: source data Supplementary Fig. 4, GLP-1 variants, 2 stands where Table 3 prints S; for solubility: 10 mM citrate 10 mM phosphate buffer, pH 7, GLP-1 variants, 2 mg/mL in 10 mM citrate 10 mM phosphate pH 7, 30 min 500,000 g 4 °C
# Experimental: Relative solubility was measured using a recently developed PEG precipitation assay. For all PYY variants the standard assay worked well, and no changes had to be implemented (Fig. 2a). […] Moreover, to ensure that the results stemming from the AMS assay are consistent and reliable, we performed the 18 A experiments twice independently on different days. The results confirmed that they are indeed replicable, and we were therefore confident to use them for the validation of our approach (Supplementary Fig. 3). […] Even at final concentrations of 0.33 mg/mL (instead of 1 mg/mL) most variants remained insoluble. We used ultracentrifugation to determine the relative solubilities of the GLP-1 variants (Table 3). To confirm the reliability of this method we replicated the results on a different day with the same stock solutions (Supplementary Fig. 4).
# Aliquots of 1 mg were prepared from the purified and lyophilised stocks. […] Briefly, a precipitant is titrated in increasing concentration to a fixed concentration of protein to induce precipitation of the protein. The samples are incubated for 48 h at 4° after mixing. The samples are centrifuged and the remaining protein concentration is measured in the supernatant using a plate reader. PYY and 18 A variants were dissolved in 10 mM citrate 10 mM phosphate buffer at pH 7 for a final concentration of 3 mg/mL. The assay was run with 50% 6000 PEG for PYY and with 3.8 M AMS for 18 A. To improve throughput, a multichannel robot was employed to measure several peptides at once with the workflow being kept the same as described previously. […] 120 µL of each sample were centrifuged using an OptimaTLX Ultracentrifuge and spinning for 30 min at 500,000 g at 4 °C. The supernatant was removed, and the peptide concentration was measured using a NanoDrop.
# [1] = run 1, read-out: Run 1 solubility (peptide concentration in supernatant)
# [2] = run 2, read-out: Run 2 solubility (peptide concentration in supernatant)
SMILES,Ultracentrifugation,First Run,Second Run,solubility [1] [µg/mL],solubility [2] [µg/mL]
"CC[C@H](C)[C@H](NC(=O)[C@H](Cc1ccccc1)NC(=O)[C@H](CCC(=O)O)NC(=O)[C@H](CCCCN)NC(=O)[C@H](C)NC(=O)[C@H](C)NC(=O)[C@H](CCC(N)=O)NC(=O)CNC(=O)[C@H](CCC(=O)O)NC(=O)[C@H](CC(C)C)NC(=O)[C@H](Cc1ccc(O)cc1)NC(=O)[C@H](CO)NC(=O)[C@H](CO)NC(=O)[C@@H](NC(=O)[C@H](CC(=O)O)NC(=O)[C@H](CO)NC(=O)[C@@H](NC(=O)[C@H](Cc1ccccc1)NC(=O)[C@@H](NC(=O)CNC(=O)[C@H](CCC(=O)O)NC(=O)[C@H](C)NC(=O)[C@@H](N)Cc1c[nH]cn1)[C@@H](C)O)[C@@H](C)O)C(C)C)C(=O)N[C@@H](C)C(=O)N[C@@H](Cc1c[nH]c2ccccc12)C(=O)N[C@@H](CC(C)C)C(=O)N[C@H](C(=O)N[C@@H](CCCCN)C(=O)NCC(=O)N[C@@H](CCCNC(=N)N)C(N)=O)C(C)C [Compound 1, reference compound]",0.9813,0.5803,1.382,–,–
CC[C@H](C)[C@H](NC(=O)[C@H](Cc1ccccc1)NC(=O)[C@H](CCC(=O)O)NC(=O)[C@H](CCCCN)NC(=O)[C@H](C)NC(=O)[C@H](CC1CCCCC1)NC(=O)[C@H](CCC(N)=O)NC(=O)CNC(=O)[C@H](CCC(=O)O)NC(=O)[C@H](CC(C)C)NC(=O)[C@H](Cc1ccc(O)cc1)NC(=O)[C@H](CO)NC(=O)[C@H](CO)NC(=O)[C@@H](NC(=O)[C@H](CC(=O)O)NC(=O)[C@H](CO)NC(=O)[C@@H](NC(=O)[C@H](Cc1ccccc1)NC(=O)[C@@H](NC(=O)CNC(=O)[C@H](CCC(=O)O)NC(=O)[C@H](C)NC(=O)[C@@H](N)Cc1c[nH]cn1)[C@@H](C)O)[C@@H](C)O)C(C)C)C(=O)N[C@@H](C)C(=O)N[C@@H](Cc1c[nH]c2ccccc12)C(=O)N[C@@H](CC(C)C)C(=O)N[C@H](C(=O)N[C@@H](CCCCN)C(=O)NCC(=O)N[C@@H](CCCNC(=N)N)C(N)=O)C(C)C [Compound 2] (H-HAEGTFTSDVSSYLEGQ[Cha]AKEFIAWLVKGR-NH2; N-terminus assumed),0,0,0,–,–
CCCC[C@H](NC(=O)[C@H](CCC(N)=O)NC(=O)CNC(=O)[C@H](CCC(=O)O)NC(=O)[C@H](CC(C)C)NC(=O)[C@H](Cc1ccc(O)cc1)NC(=O)[C@H](CO)NC(=O)[C@H](CO)NC(=O)[C@@H](NC(=O)[C@H](CC(=O)O)NC(=O)[C@H](CO)NC(=O)[C@@H](NC(=O)[C@H](Cc1ccccc1)NC(=O)[C@@H](NC(=O)CNC(=O)[C@H](CCC(=O)O)NC(=O)[C@H](C)NC(=O)[C@@H](N)Cc1c[nH]cn1)[C@@H](C)O)[C@@H](C)O)C(C)C)C(=O)N[C@@H](C)C(=O)N[C@@H](CCCCN)C(=O)N[C@@H](CCC(=O)O)C(=O)N[C@@H](Cc1ccccc1)C(=O)N[C@H](C(=O)N[C@@H](C)C(=O)N[C@@H](Cc1c[nH]c2ccccc12)C(=O)N[C@@H](CC(C)C)C(=O)N[C@H](C(=O)N[C@@H](CCCCN)C(=O)NCC(=O)N[C@@H](CCCNC(=N)N)C(N)=O)C(C)C)[C@@H](C)CC [Compound 3] (H-HAEGTFTSDVSSYLEGQ[Nle]AKEFIAWLVKGR-NH2; N-terminus assumed),0.1242,0.086,0.1624,90,160
CC[C@H](C)[C@H](NC(=O)[C@H](Cc1ccccc1)NC(=O)[C@H](CCC(=O)O)NC(=O)[C@H](CCCCN)NC(=O)[C@H](C)NC(=O)[C@H](CCCCNC(C)=O)NC(=O)[C@H](CCC(N)=O)NC(=O)CNC(=O)[C@H](CCC(=O)O)NC(=O)[C@H](CC(C)C)NC(=O)[C@H](Cc1ccc(O)cc1)NC(=O)[C@H](CO)NC(=O)[C@H](CO)NC(=O)[C@@H](NC(=O)[C@H](CC(=O)O)NC(=O)[C@H](CO)NC(=O)[C@@H](NC(=O)[C@H](Cc1ccccc1)NC(=O)[C@@H](NC(=O)CNC(=O)[C@H](CCC(=O)O)NC(=O)[C@H](C)NC(=O)[C@@H](N)Cc1c[nH]cn1)[C@@H](C)O)[C@@H](C)O)C(C)C)C(=O)N[C@@H](C)C(=O)N[C@@H](Cc1c[nH]c2ccccc12)C(=O)N[C@@H](CC(C)C)C(=O)N[C@H](C(=O)N[C@@H](CCCCN)C(=O)NCC(=O)N[C@@H](CCCNC(=N)N)C(N)=O)C(C)C [Compound 4] (H-HAEGTFTSDVSSYLEGQK(Ac)AKEFIAWLVKGR-NH2; N-terminus assumed),2,2,2,> 2000,> 2000
CC[C@H](C)[C@H](NC(=O)[C@H](Cc1ccccc1)NC(=O)[C@H](CCC(=O)O)NC(=O)[C@H](CCCCN)NC(=O)[C@H](C)NC(=O)C(C)(C)NC(=O)[C@H](CCC(N)=O)NC(=O)CNC(=O)[C@H](CCC(=O)O)NC(=O)[C@H](CC(C)C)NC(=O)[C@H](Cc1ccc(O)cc1)NC(=O)[C@H](CO)NC(=O)[C@H](CO)NC(=O)[C@@H](NC(=O)[C@H](CC(=O)O)NC(=O)[C@H](CO)NC(=O)[C@@H](NC(=O)[C@H](Cc1ccccc1)NC(=O)[C@@H](NC(=O)CNC(=O)[C@H](CCC(=O)O)NC(=O)[C@H](C)NC(=O)[C@@H](N)Cc1c[nH]cn1)[C@@H](C)O)[C@@H](C)O)C(C)C)C(=O)N[C@@H](C)C(=O)N[C@@H](Cc1c[nH]c2ccccc12)C(=O)N[C@@H](CC(C)C)C(=O)N[C@H](C(=O)N[C@@H](CCCCN)C(=O)NCC(=O)N[C@@H](CCCNC(=N)N)C(N)=O)C(C)C [Compound 5] (H-HAEGTFTSDVSSYLEGQ[Aib]AKEFIAWLVKGR-NH2; N-terminus assumed),0.08054,0.09475,0.06633,90,70

# Next, values leading:
Ultracentrifugation,First Run,Second Run,solubility [1] [µg/mL],solubility [2] [µg/mL],SMILES
2,2,2,> 2000,> 2000,CC[C@H](C)[C@H](NC(=O)[C@H](Cc1ccccc1)NC(=O)[C@H](CCC(=O)O)NC(=O)[C@H](CCCCN)NC(=O)[C@H](C)NC(=O)[C@H](CCCNC(N)=O)NC(=O)[C@H](CCC(N)=O)NC(=O)CNC(=O)[C@H](CCC(=O)O)NC(=O)[C@H](CC(C)C)NC(=O)[C@H](Cc1ccc(O)cc1)NC(=O)[C@H](CO)NC(=O)[C@H](CO)NC(=O)[C@@H](NC(=O)[C@H](CC(=O)O)NC(=O)[C@H](CO)NC(=O)[C@@H](NC(=O)[C@H](Cc1ccccc1)NC(=O)[C@@H](NC(=O)CNC(=O)[C@H](CCC(=O)O)NC(=O)[C@H](C)NC(=O)[C@@H](N)Cc1c[nH]cn1)[C@@H](C)O)[C@@H](C)O)C(C)C)C(=O)N[C@@H](C)C(=O)N[C@@H](Cc1c[nH]c2ccccc12)C(=O)N[C@@H](CC(C)C)C(=O)N[C@H](C(=O)N[C@@H](CCCCN)C(=O)NCC(=O)N[C@@H](CCCNC(=N)N)C(N)=O)C(C)C [Compound 6] (H-HAEGTFTSDVSSYLEGQ[Cit]AKEFIAWLVKGR-NH2; N-terminus assumed)
0.8319,0.8416,0.8222,840,820,CC[C@H](C)[C@H](NC(=O)[C@H](Cc1ccccc1)NC(=O)[C@H](CCC(=O)O)NC(=O)[C@H](CCCCN)NC(=O)[C@H](C)NC(=O)[C@H](CC1CCCCC1)NC(=O)[C@H](CCC(N)=O)NC(=O)CNC(=O)[C@H](CCC(=O)O)NC(=O)[C@H](CC(C)C)NC(=O)[C@H](Cc1ccc(O)cc1)NC(=O)[C@H](CO)NC(=O)[C@H](CO)NC(=O)[C@@H](NC(=O)[C@H](CC(=O)O)NC(=O)[C@H](CO)NC(=O)[C@@H](NC(=O)[C@H](Cc1ccccc1)NC(=O)[C@@H](NC(=O)CNC(=O)[C@H](CCC(=O)O)NC(=O)[C@H](C)NC(=O)[C@@H](N)Cc1c[nH]cn1)[C@@H](C)O)[C@@H](C)O)C(C)C)C(=O)N[C@@H](C)C(=O)N[C@@H](Cc1c[nH]c2ccccc12)C(=O)N[C@@H](CC(C)C)C(=O)N[C@H](C(=O)N[C@@H](CCCCN)C(=O)NCC(=O)N[C@@H](CCCNC(N)=O)C(N)=O)C(C)C [Compound 7] (H-HAEGTFTSDVSSYLEGQ[Cha]AKEFIAWLVKG[Cit]-NH2; N-terminus assumed)
